13 compounds from patent US20190337924A1, “SUBSTITUTED HYDANTOIN AND THIOHYDANTOIN DERIVATIVES AS ANDROGEN RECEPTOR ANTAGONISTS” (Janssen Pharmaceutica NV, priority 2016, published 2019) can be followed below.

Structures can show the parent of a compound that is named as a salt. Where two headings read alike, the source gives them in different places.

For this experiment, the target named is T1, wild-type Androgen Receptor (AR-wt) (Homo sapiens, UniProt P10275).
T1 construct: expressed in transfected cells; host or cells: LNCaP
T1 sequence (P10275 1-920): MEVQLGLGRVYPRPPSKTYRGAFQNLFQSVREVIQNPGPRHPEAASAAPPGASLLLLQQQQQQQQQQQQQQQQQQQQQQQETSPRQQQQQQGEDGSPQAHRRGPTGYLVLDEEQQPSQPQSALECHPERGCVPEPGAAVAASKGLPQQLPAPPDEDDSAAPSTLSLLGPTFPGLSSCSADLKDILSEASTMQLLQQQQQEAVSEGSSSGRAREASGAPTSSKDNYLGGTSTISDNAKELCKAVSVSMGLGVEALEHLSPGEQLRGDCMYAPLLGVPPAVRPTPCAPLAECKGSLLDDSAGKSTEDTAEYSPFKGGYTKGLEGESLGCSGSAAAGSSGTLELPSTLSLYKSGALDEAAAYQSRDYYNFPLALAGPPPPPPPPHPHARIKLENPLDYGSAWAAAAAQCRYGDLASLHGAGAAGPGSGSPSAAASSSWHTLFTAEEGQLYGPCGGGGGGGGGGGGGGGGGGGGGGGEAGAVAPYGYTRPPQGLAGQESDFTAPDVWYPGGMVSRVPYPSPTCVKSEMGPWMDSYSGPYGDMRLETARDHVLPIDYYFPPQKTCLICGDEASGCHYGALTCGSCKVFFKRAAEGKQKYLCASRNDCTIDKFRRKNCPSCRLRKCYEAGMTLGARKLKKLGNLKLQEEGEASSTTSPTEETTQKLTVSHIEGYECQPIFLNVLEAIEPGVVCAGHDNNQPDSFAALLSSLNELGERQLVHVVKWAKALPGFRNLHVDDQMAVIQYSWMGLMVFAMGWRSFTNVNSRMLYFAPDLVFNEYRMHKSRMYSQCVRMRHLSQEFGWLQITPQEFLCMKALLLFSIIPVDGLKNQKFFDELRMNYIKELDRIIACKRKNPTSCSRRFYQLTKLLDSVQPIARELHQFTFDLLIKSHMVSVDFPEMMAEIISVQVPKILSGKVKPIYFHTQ
The experiment is described as follows: AR reporter assay, LNCaP-AR-wt ANT (antagonist mode). It counts as cell-based. As to conditions: for Emax: read-out: LNCaP-AR-wt ANT MAX % Inh. From the text: LNCaP AR (cs) and LNCaP F876L luciferase cell lines were generated by transduction of each cell line (description of cell line generation Joseph J D, Lu N, Qian J, Sensintaffar J, Shao G, Brigham D, Moon M, Maneval E C, Chen I, Darimont B, Hager J H. A clinically relevant androgen receptor mutation confers resistance to second-generation antiandrogens enzalutamide and ARN-509. Cancer Discov 2013; 3:1020-1029) with an Androgen Response Element Firefly Luciferase lentiviral construct at an MOI (multiplicity of infection) of 50 following the manufacturer's instructions (Qiagen). A stable pooled-population cell line was generated using puromycin (Life Technologies) selection at 1:10,000 v/v. The protocol below was used for both cell lines and for testing of the compounds of Formula (I) of the present invention.
LNCaP cells were grown to about 80% confluence, media removed and cells rinsed in Hank's balanced salt solution prior to separation from the plate with 0.05% Trypsin EDTA. Cells were lifted and trypsin negated in complete CSS (charcoal stripped serum) culture media. CSS was maintained on cells for 24 h prior to assay, at which time 5,000 cells/[…] were seeded in Greiner 384 well White/White Tissue Culture Treated Plates and incubated for a further 1-2 hours at 37° C., 5% CO2, prior to addition of 10 μL of 4× Test Compounds (compounds described herein) or Assay Controls (all diluted in complete media containing 10% css). A further 10 μL of 4× R-1881 Agonist Challenge (antagonist assay) or Buffer (agonist assay) was then added (all diluted in complete media containing 10% css). Agonist challenge was at 400 pM for WT assay and 600 pM for F876L assay. Plates containing cells and compounds herein were incubated for a further 20-24 hours at 37° C., 5% CO2 before addition of 40 μL/well of Steady-Glo Luciferase Assay System Reagent (Promega#E2520). After 1 h, plates were read for luminescence on a BMG Pherastar.
Agonist challenge: R-1881 (Metribolone)—Agonist
Antagonist control (low control): 5-(5-(4-((1-Methylpiperidin-4-yl)oxy)phenyl)-8-oxo-6-thioxo-5,7-diazaspiro[3.4]octan-7-yl)-3-(trifluoromethyl)picolinonitrile (WO 2011/103202, EXAMPLE 19, Compound 129, CAS #1332390-06-3).
(1−(Sample RLU−Ave Low Control RLU[10 μM Antagonist Control])/(Ave High Control RLU [400 pM R-1881]−Ave Low Control RLU[10 μM Antagonist Control]))*100.
EC/IC50 calculations were achieved utilizing calculated RLU data and data fitting macros. Data were fit using least-squares methods to the following formula: […]
As used herein: • pIC50 is defined as −Log10(IC50 expressed in [Molar]). • pEC50 is defined as −Log10(EC50 expressed in [Molar]). • MAX % Inh is defined as the maximum % inhibition of R1881 control response observed for a compound over the tested concentration range. • MAX % Stim is defined as the maximum % stimulation (agonist response) observed for a compound over the tested concentration range. • LNCaP-AR-wt ANT refers to the reporter assay using LNCaP cells stably transfected with the Androgen Response Element Firefly Luciferase lentiviral construct and wild-type Androgen Receptor (AR-wt) in Antagonist mode. • LNCaP-AR-wt AG refers to the reporter assay using LNCaP cells stably transfected with the Androgen Response Element Firefly Luciferase lentiviral construct and wild-type Androgen Receptor (AR-wt) in Agonist mode. • LNCaP-AR-F876L ANT refers to the reporter assay using LNCaP cells stably transfected with the Androgen Response Element Firefly Luciferase lentiviral construct and F876L mutant Androgen Receptor (AR-F876L) in Antagonist mode. • LNCaP-AR-F876L AG refers to the reporter assay using LNCaP cells stably transfected with the Androgen Response Element Firefly Luciferase lentiviral construct and F876L mutant Androgen Receptor (AR-F876L) in Agonist mode.

Where [1] appears, read: antagonist mode, 400 pM R-1881 challenge, luciferase reporter, -Log10(IC50 in Molar), read-out: LNCaP-AR-wt ANT pIC50 (converted).

As for `COc1cc(N2C(=O)C3(CCC3)N(c3ccc(OC4CCN(C)CC4)nc3)C2=S)ccc1C#N` [Compound 20, 2-Methoxy-4-(5-(6-((1-methylpiperidin-4-yl)oxy)pyridin-3-yl)-8-oxo-6-thioxo-5,7-diazaspiro[3.4]octan-7-yl)benzonitrile], the Emax came to 100%. Moreover, the IC50 under setting [1] is 214 nM.

Regarding `COc1cc(N2C(=O)C3(CCC3)N(c3ccc(OC4CCN(C)CC4)cc3)C2=S)ccc1C#N` [Compound 19, 2-Methoxy-4-(5-(4-((1-methylpiperidin-4-yl)oxy)phenyl)-8-oxo-6-thioxo-5,7-diazaspiro[3.4]octan-7-yl)benzonitrile], the Emax amounted to 105%. In addition, the IC50 under setting [1] was 141 nM.

As for `Cc1cc(N2C(=O)C3(CCC3)N(c3ccc(OC4CCN(C)CC4)nc3)C2=S)ccc1C#N` [Compound 18, 2-Methyl-4-(5-(6-((1-methylpiperidin-4-yl)oxy)pyridin-3-yl)-8-oxo-6-thioxo-5,7-diazaspiro[3.4]octan-7-yl)benzonitrile], the Emax is 99.4%. The IC50 under setting [1] is 36.3 nM.

Turning to `CN1CCC(Oc2ncc(N3C(=S)N(c4ccc(C#N)c(C(F)(F)F)c4)C(=O)C3(C)C)cn2)CC1` [Compound 6, 4-(4,4-Dimethyl-3-(2-((1-methylpiperidin-4-yl)oxy)pyrimidin-5-yl)-5-oxo-2-thioxoimidazolidin-1-yl)-2-(trifluoromethyl)benzonitrile], the IC50 was 91.2 nM and the Emax turned out to be 102%.

As for `CC1(C)C(=O)N(c2ccc(C#N)c(C(F)(F)F)c2)C(=S)N1c1ccc(OC2CCNCC2)nc1` [Compound 3, 4-(4,4-Dimethyl-5-oxo-3-(6-(piperidin-4-yloxy)pyridin-3-yl)-2-thioxoimidazolidin-1-yl)-2-(trifluoromethyl)benzonitrile hydrochloride], the IC50 was 46.8 nM and the Emax turned out to be 103%.

For `CN1CCC(Oc2ccc(N3C(=S)N(c4ccc(C#N)c(Cl)c4)C(=O)C34CCC4)cn2)CC1` [Compound 24, 2-Chloro-4-(5-(6-((1-methylpiperidin-4-yl)oxy)pyridin-3-yl)-8-oxo-6-thioxo-5,7-diazaspiro[3.4]octan-7-yl)benzonitrile hydrochloride], the IC50 is 95.5 nM and the Emax was found to be 102%.

For the compound `CN1CCC(Oc2ccc(N3C(=S)N(c4ccc(C#N)c(C(F)(F)F)c4)C(=O)C3(C)C)cc2)CC1` [Compound 2, 4-(4,4-Dimethyl-3-(4-((1-methylpiperidin-4-yl)oxy)phenyl)-5-oxo-2-thioxoimidazolidin-1-yl)-2-(trifluoromethyl)benzonitrile hydrochloride], the IC50 was 97.7 nM and the Emax turned out to be 104%.

Take `CC1(C)C(=O)N(c2ccc(C#N)c(C(F)(F)F)c2)C(=S)N1c1ccc(OC2CCNCC2)cc1` [Compound 1, 4-(4,4-Dimethyl-5-oxo-3-(4-(piperidin-4-yloxy)phenyl)-2-thioxoimidazolidin-1-yl)-2-(trifluoromethyl)benzonitrile]: the IC50 is 75.9 nM and the Emax is 106%.

Regarding `N#Cc1ccc(N2C(=O)C3(CCC3)N(c3ccc(OC4CCNCC4)nc3)C2=S)cc1C(F)(F)F` [Compound 13, 4-(8-Oxo-5-(6-(piperidin-4-yloxy)pyridin-3-yl)-6-thioxo-5,7-diazaspiro[3.4]octan-7-yl)-2-(trifluoromethyl)benzonitrile hydrochloride], the IC50 was 63.1 nM and the Emax worked out at 104%.

Take `N#Cc1ccc(N2C(=O)C3(CCC3)N(c3ccc(OC4CCNCC4)cc3)C2=S)cc1C(F)(F)F` [Compound 11, 4-(8-Oxo-5-(4-(piperidin-4-yloxy)phenyl)-6-thioxo-5,7-diazaspiro[3.4]octan-7-yl)-2-(trifluoromethyl)benzonitrile]: the IC50 was 331 nM and the Emax came to 105%.

In the case of `CC1(C)C(=O)N(c2ccc(C#N)c(C(F)(F)F)c2)C(=S)N1c1cnc(OC2CCNCC2)nc1` [Compound 5, 4-(4,4-Dimethyl-5-oxo-3-(2-(piperidin-4-yloxy)pyrimidin-5-yl)-2-thioxoimidazolidin-1-yl)-2-(trifluoromethyl)benzonitrile], the IC50 is 170 nM and the Emax amounted to 101%.

As to `CN1CCC(Oc2ccc(N3C(=S)N(c4ccc(C#N)c(C(F)(F)F)c4)C(=O)C34CCC4)cn2)CC1` [Compound 14, 4-(5-(6-((1-Methylpiperidin-4-yl)oxy)pyridin-3-yl)-8-oxo-6-thioxo-5,7-diazaspiro[3.4]octan-7-yl)-2-(trifluoromethyl)benzonitrile], the IC50 was 89.1 nM and the Emax is 104%.

Turning to `CC1(C)C(=O)N(c2ccc(C#N)c(Cl)c2)C(=S)N1c1ccc(OC2CCNCC2)cc1` [Compound 7, 2-Chloro-4-(4,4-dimethyl-5-oxo-3-(4-(piperidin-4-yloxy)phenyl)-2-thioxoimidazolidin-1-yl)benzonitrile hydrochloride], the IC50 was 61.7 nM and the Emax was 101%.
